Data from PubChem BioAssay AID328 (DTP/NCI, 2004).
Inconclusive results and toxic doses are left out.

Test system: BDF1 mice, P388 leukemia ip, median survival T/C
Assay: NCI In Vivo Anticancer Drug Screen. Data for tumor model P388 Leukemia (intraperitoneal) in B6D2F1 (BDF1) mice
Conditions: endpoint: median survival time, higher = longer survival
Method in brief: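 In tumour-bearing mice, survival after compound treatment is set against the vehicle group and given as a quotient.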

[1] = dose: 50.0 mg/kg/injection, schedule: Q01DX009 (ip), vehicle: saline with Tween-80
[2] = dose: 100.0 mg/kg/injection, schedule: Q01DX009 (ip), vehicle: saline with Tween-80
[3] = dose: 200.0 mg/kg/injection, schedule: Q01DX009 (ip), vehicle: saline with Tween-80
[4] = dose: 0.39 mg/kg/injection, schedule: Q01DX009 (ip), vehicle: saline
[5] = dose: 0.78 mg/kg/injection, schedule: Q01DX009 (ip), vehicle: saline

`O=C1c2ccccc2C(O)(c2ccccc2)c2c(Cl)cccc21` (stereo not given) was tested, and the T/C [1] was 104 % of control, the T/C [2] was 111 % of control and the T/C [3] was 95 % of control.

In the case of `COC(=S)Nc1ccc2c(c1)nc(-c1ccccc1)c1cc(NC(=S)OC)ccc12`, the T/C (dose: 100.0 mg/kg/injection, schedule: Q04DX002 (ip), vehicle: saline with Tween-80) is reported as 101 % of control, the T/C (dose: 200.0 mg/kg/injection, schedule: Q04DX002 (ip), vehicle: saline with Tween-80) is reported as 101 % of control and the T/C (dose: 400.0 mg/kg/injection, schedule: Q04DX002 (ip), vehicle: saline with Tween-80) is reported as 90 % of control.

With `Cc1nc2ccccc2nc1CC(O)(c1ccccc1)c1ccccc1` the T/C [1] was 97 % of control, the T/C [2] was 103 % of control and the T/C [3] was 100 % of control.

For `O=C1c2ccccc2C(=O)c2c(Sc3ccccc3)cccc21`, the T/C [3] was 95 % of control.

`CSc1nc(Cl)cc(N2CC2)n1` was tested, and the T/C (dose: 0.19 mg/kg/injection, schedule: Q04DX003 (ip), vehicle: saline) was 104 % of control, the T/C [4] was 95 % of control and the T/C (dose: 0.39 mg/kg/injection, schedule: Q04DX003 (ip), vehicle: saline) was 109 % of control. The T/C (dose: 0.5 mg/kg/injection, schedule: Q01DX009 (ip), vehicle: saline) was 91 % of control, the T/C [5] was 100 % of control and the T/C (dose: 0.78 mg/kg/injection, schedule: Q04DX003 (ip), vehicle: saline) was 100 % of control. The T/C (dose: 1.0 mg/kg/injection, schedule: Q01DX009 (ip), vehicle: saline) was 116 % of control, the T/C (dose: 2.0 mg/kg/injection, schedule: Q01DX009 (ip), vehicle: saline) was 95 % of control and the T/C (dose: 3.6 mg/kg/injection, schedule: Q04DX003 (ip), vehicle: saline) was 100 % of control.

For `COc1cccc2c1C(=O)c1c(O)c3c(c(O)c1C2=O)CC(O)(/C(C)=N/NC(=O)CC(=O)N/N=C(\C)C1(O)Cc2c(O)c4c(c(O)c2C(OC2CC(N)C(O)C(C)O2)C1)C(=O)c1c(OC)cccc1C4=O)CC3OC1CC(N)C(O)C(C)O1` (stereo not given), the T/C (dose: 3.13 mg/kg/injection, schedule: Q01DX009 (ip), vehicle: water) was 157 % of control and the T/C (dose: 6.25 mg/kg/injection, schedule: Q01DX009 (ip), vehicle: water) was 186 % of control.

`C1CCC2[N-]CC3CCCCC3[N-]CC3CCCCC3[N-]CC3CCCCC3[N-]CC2C1.[Cu]` (stereo not given) was tested, and the T/C [4] was 107 % of control, the T/C [5] was 113 % of control and the T/C (dose: 3.12 mg/kg/injection, schedule: Q01DX009 (ip), vehicle: saline) was 166 % of control. The T/C (dose: 6.25 mg/kg/injection, schedule: Q01DX009 (ip), vehicle: saline) was 96 % of control.

In the case of `CN(C)c1ccc(/C=C/c2cccc(/C=C/c3ccc(N(C)C)cc3)[n+]2[O-])cc1`, the T/C (dose: 50.0 mg/kg/injection, schedule: Q01DX005 (ip), vehicle: saline with Tween-80) is reported as 91 % of control, the T/C (dose: 100.0 mg/kg/injection, schedule: Q01DX005 (ip), vehicle: saline with Tween-80) is reported as 89 % of control and the T/C (dose: 200.0 mg/kg/injection, schedule: Q01DX005 (ip), vehicle: saline with Tween-80) is reported as 93 % of control.

With `Nc1nc(-c2c[nH]c(=O)[nH]c2=O)cs1` the T/C [1] was 103 % of control and the T/C [2] was 98 % of control.

With `CCCCOC(=O)c1ccc(NC(=O)NCCC)cc1` the T/C (dose: 100.0 mg/kg/injection, schedule: Q04DX003 (ip), vehicle: saline with Tween-80) was 104 % of control, the T/C (dose: 200.0 mg/kg/injection, schedule: Q04DX003 (ip), vehicle: saline with Tween-80) was 100 % of control and the T/C (dose: 400.0 mg/kg/injection, schedule: Q04DX003 (ip), vehicle: saline with Tween-80) was 109 % of control.

`CC1(C)O[C@]2(C)CC[C@@H]1[C@H]1O[C@@H]12` was tested, and the T/C (dose: 50.0 mg/kg/injection, schedule: Q01DX005 (ip), vehicle: saline) was 102 % of control, the T/C (dose: 100.0 mg/kg/injection, schedule: Q01DX005 (ip), vehicle: saline) was 100 % of control and the T/C (dose: 200.0 mg/kg/injection, schedule: Q01DX005 (ip), vehicle: saline) was 102 % of control.

In the case of `CC1=CC(=NC(=O)CBr)C=C/C1=N\S(=O)(=O)c1ccccc1`, the T/C (dose: 6.25 mg/kg/injection, schedule: Q01DX009 (ip), vehicle: saline with Tween-80) is reported as 113 % of control, the T/C (dose: 12.5 mg/kg/injection, schedule: Q01DX009 (ip), vehicle: saline with Tween-80) is reported as 111 % of control and the T/C (dose: 25.0 mg/kg/injection, schedule: Q01DX009 (ip), vehicle: saline with Tween-80) is reported as 106 % of control.

`Nc1ccc2cc(Cl)ccc2c1` was tested, and the T/C [2] was 90 % of control.
